This is an account of results in patent US8940771B2, “Organic compounds” (Novartis AG, priority 2007, dated 2015).

The IC50 is the concentration that gives 50% inhibition. The low end stands for greater potency in that assay, the high end for weaker potency in that assay.

Molecules are shown by their SMILES.

What all share (format): biochemical
For test [1], the target named is PI3Kα (p85iSH2(461-568)-p110α(21-1068)-His, BV1075) (Homo sapiens (Human), UniProt P42336). In words: PI3K KinaseGlo assay, PI3Kalpha. To be noted: for IC50: KinaseGlo, 1 μM ATP; for Selectivity PI3Kalpha vs. PI3Kdelta: ratio of PI3Kdelta IC50 to PI3Kalpha IC50. In general terms: Kinase-Glo measures the ATP left after a reaction by luminescence.
PI3Kα (p85iSH2(461-568)-p110α(21-1068)-His, BV1075), sequence (P42336 other isoform, or with tags, fused parts or gaps): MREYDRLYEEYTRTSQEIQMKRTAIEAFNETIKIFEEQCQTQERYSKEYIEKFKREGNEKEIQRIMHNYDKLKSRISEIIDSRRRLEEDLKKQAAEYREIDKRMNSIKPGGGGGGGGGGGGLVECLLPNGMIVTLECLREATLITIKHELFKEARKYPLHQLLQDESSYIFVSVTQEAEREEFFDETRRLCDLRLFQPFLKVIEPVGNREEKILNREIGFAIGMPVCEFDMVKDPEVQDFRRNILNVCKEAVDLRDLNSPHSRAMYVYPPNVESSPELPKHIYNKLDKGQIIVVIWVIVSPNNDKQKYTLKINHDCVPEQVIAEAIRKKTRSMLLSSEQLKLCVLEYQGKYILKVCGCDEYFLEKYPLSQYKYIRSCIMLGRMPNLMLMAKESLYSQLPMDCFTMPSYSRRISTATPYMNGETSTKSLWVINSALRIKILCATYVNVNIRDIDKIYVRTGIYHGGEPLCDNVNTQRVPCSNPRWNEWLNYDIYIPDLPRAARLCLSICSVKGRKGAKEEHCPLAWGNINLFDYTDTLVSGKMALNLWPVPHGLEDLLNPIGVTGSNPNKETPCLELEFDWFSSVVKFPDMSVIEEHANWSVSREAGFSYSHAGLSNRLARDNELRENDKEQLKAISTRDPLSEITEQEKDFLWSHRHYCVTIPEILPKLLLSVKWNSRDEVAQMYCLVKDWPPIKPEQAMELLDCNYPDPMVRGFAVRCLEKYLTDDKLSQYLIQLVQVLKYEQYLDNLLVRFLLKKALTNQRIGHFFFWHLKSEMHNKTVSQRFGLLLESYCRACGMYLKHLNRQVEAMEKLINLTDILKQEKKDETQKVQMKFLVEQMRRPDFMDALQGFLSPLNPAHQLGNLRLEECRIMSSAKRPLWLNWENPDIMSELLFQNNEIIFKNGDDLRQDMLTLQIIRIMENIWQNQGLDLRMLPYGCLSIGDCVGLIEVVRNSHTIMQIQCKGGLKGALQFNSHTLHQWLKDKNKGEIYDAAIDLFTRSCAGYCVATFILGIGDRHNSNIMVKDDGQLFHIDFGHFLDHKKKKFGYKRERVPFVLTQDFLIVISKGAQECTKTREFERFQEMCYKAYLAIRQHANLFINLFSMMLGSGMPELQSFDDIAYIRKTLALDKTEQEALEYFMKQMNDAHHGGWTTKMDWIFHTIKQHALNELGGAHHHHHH
Test [2] deals with PI3Kδ (p85iSH2(461-568)-p110δ(2-1044)-His, BV1060) (Homo sapiens (Human), UniProt O00329). In words: PI3K KinaseGlo assay, PI3Kdelta. The following applies: 1 μM ATP, alpha vs. delta selectivity table.
PI3Kδ (p85iSH2(461-568)-p110δ(2-1044)-His, BV1060), sequence (O00329 other isoform, or with tags, fused parts or gaps): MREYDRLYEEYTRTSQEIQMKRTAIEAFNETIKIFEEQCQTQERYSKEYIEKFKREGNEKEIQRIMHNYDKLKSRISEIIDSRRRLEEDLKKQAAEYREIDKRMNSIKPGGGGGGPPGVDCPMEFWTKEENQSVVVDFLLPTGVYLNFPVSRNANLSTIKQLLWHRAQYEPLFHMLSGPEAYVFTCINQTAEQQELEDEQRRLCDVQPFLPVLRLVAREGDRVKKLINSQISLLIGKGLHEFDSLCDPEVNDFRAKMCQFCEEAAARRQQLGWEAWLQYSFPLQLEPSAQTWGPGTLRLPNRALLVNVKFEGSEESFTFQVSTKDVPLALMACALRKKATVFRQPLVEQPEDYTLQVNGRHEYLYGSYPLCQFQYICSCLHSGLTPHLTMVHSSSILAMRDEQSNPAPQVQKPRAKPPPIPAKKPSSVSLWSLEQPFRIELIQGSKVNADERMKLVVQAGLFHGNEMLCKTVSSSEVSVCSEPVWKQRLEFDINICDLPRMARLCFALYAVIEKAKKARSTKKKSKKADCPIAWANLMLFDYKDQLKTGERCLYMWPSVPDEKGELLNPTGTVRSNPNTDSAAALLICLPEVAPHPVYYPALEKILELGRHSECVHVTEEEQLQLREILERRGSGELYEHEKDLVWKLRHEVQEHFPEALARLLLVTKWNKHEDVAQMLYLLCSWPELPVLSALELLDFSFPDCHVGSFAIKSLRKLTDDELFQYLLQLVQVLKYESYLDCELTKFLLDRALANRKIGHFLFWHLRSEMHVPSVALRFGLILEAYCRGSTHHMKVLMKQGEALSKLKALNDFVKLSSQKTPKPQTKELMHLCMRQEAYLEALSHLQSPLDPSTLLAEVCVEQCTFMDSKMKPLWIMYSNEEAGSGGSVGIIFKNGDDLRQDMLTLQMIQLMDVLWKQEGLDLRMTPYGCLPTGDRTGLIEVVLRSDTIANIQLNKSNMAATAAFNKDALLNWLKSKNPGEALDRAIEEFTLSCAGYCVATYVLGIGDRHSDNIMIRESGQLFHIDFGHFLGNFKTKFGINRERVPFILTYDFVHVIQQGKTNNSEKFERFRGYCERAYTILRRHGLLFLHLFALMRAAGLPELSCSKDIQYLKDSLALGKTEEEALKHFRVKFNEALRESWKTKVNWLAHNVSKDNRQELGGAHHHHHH
Test [3] concerns the target PI3Kγ (p110γ(Δ143-[Met144-1102])-His, BV950) (Homo sapiens (Human), UniProt P48736). Description: PI3K KinaseGlo assay, PI3Kgamma. To be noted: 1 μM ATP, four-isoform table.
Where [4] appears, read: alpha vs. delta selectivity table.

PI3Kγ (p110γ(Δ143-[Met144-1102])-His, BV950), sequence (P48736 other isoform, or with tags, fused parts or gaps): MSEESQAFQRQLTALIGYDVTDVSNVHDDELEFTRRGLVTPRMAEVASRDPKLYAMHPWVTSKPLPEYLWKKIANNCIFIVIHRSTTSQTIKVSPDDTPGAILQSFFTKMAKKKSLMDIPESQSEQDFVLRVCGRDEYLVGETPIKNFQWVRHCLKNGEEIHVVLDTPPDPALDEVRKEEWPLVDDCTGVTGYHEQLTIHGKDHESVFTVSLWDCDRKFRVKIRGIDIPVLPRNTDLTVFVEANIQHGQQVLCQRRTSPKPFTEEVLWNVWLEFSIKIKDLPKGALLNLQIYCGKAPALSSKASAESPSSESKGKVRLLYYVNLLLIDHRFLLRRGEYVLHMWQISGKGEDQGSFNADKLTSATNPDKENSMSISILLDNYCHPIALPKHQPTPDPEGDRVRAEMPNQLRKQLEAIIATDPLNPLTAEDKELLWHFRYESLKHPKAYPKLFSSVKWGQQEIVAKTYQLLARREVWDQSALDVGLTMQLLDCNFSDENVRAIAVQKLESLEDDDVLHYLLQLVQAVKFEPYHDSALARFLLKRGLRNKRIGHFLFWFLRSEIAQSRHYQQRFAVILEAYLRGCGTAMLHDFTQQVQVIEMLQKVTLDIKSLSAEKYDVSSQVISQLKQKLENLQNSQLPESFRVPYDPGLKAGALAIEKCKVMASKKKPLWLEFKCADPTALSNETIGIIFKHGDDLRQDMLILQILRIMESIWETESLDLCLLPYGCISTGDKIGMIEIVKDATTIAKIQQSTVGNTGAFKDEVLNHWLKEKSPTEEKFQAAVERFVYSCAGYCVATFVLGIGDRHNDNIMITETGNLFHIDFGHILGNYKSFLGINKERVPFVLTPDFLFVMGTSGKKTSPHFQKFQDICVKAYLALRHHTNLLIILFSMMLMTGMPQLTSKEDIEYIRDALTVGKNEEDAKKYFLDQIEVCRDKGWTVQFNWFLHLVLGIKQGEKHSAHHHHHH

`Cc1nc(NC(=O)N2C[C@H](N(C)C)C[C@H]2C(N)=O)sc1-c1ccnc(C(C)(C)C)n1` [Example 70, (2S,4R)-4-Dimethylamino-pyrrolidine-1,2-dicarboxylic acid 2-amide 1-{[5-(2-tert-butyl-pyrimidin-4-yl)-4-methyl-thiazol-2-yl]-amide}]: the half-inhibitory concentration (IC50) amounted to 14 nM in test [1] (setting [4]) and 3450 nM in test [2]. In test [1], the “Selectivity PI3Kalpha vs. PI3Kdelta” value was 246-fold.
With `Cc1nc(NC(=O)N2CCC[C@@]2(C)C(N)=O)sc1-c1ccnc(C(C)(C)C)n1` [Example 12, (S)-2-methyl-pyrrolidine-1,2-dicarboxylic acid 2-amide 1-{[5-(2-tert-butyl-pyrimidin-4-yl)-4-methyl-thiazol-2-yl]-amide}], the IC50 in test [1] (setting [4]) was 15 nM; in test [2], 974 nM. Besides, in test [1], the “Selectivity PI3Kalpha vs. PI3Kdelta” value is 65-fold.
For the molecule `Cc1nc(NC(=O)N2C[C@@H](F)C[C@H]2C(N)=O)sc1-c1ccnc(C(C)(C)C)n1` [Example 66], the half-maximal inhibitory concentration (IC50) in test [1] (10 nM enzyme, 30 mins) was 40 nM; in test [1] (setting [4]) it was 40 nM; in test [2], 1270 nM. Further, the “Selectivity PI3Kalpha vs. PI3Kdelta” value in test [1] is 32-fold.
In test [3], `Cc1nc(NC(=O)N2CCC[C@@]2(C)C(N)=O)sc1-c1csc(CC2CC2)n1` [Example 151, (S)-2-Methyl-pyrrolidine-1,2-dicarboxylic acid 2-amide 1-[(2-cyclopropylmethyl-4′-methyl-[4,5′]bithiazolyl-2′-yl)-amide]] returned an IC50 of 928 nM.
